The results in this text go back to patent US12053522B2, “Pro-inflammatory and anti-cancer functions of toll-like receptor 4 antagonists” (Children's Medical Center Corporation, priority 2015, dated 2024).

Where only a bound is given, the exact number is not on record here.

Holding throughout (assay type): cell-based, mouse
The test system of one assay is bone marrow derived DCs. Kind of assay: IL-1β release from DCs (ELISA). The method, then: NLRP3 KO and ASC KO mice were kindly provided by Dr. T. Horng, Harvard School of Public Health. Caspase-11 KO mice were kindly provided by Dr. Junying Yuan, Harvard Medical School. Caspase-1 single KO mice were kindly provided by Thirumala-Devi Kanneganti (St. Judes). DCs were differentiated from bone marrow in IMDM (Gibco), 10% B16-GM-CSF derived supernatant, 2 μM 2-mercaptoethanol and 10% FBS and used after 6 day of culture. […] MO were differentiated from bone marrow in DMEM (Gibco), 30% L929 supernatant, and 10% FBS. Immortal MΦs were cultured in DMEM supplemented with 10% L929 supernatant and 10% FBS. […] For experiments using pan-caspase inhibitor, cells were treated with zVADfmk (20 μM) 30 min before inflammasome activation stimuli addition. Cycloheximide (50 ng/ml) was added at the time of stimuli administration. Transfection with DOTAP was performed following the manufacturer instructions. […] 30 min later, the DOTAP/LPS or DOTAP/oxPAPC complex were added to the culture.
RNA was isolated from cell cultures using Qiashedder (Qiagen) and GeneJET RNA Purification Kit (Life Technologies). Purified RNA was analyzed for gene expression on a CFX384 real time cycler (Bio-rad) using TaqMan RNA-to-CT 1-Step Kit (Applied Biosystems) with probes purchased from Life Technologies specific for viperin (Mm00491265_m1), IFNb1 (Mm00439552_s1), IL6 (Mm00446190_m1), caspase-1 (Mm00438023_m1), caspase-11 (Mm00432307_m1), Nlrp3 (Mm00840904_m1), Asc (Mm00445747_g1), TBP (Mm00446971_m1) or GAPDH (Mm99999915_g1). ELISA for IL-1β, IL-2, IL-17, IL-18, TNFα and IFNγ were performed using Mouse Ready-SET-Go ELISA kits (eBioscience). To measure secreted cytokines, supernatant were collected, clarified by centrifugation and stored at −20° C. Cell associated cytokines were measured as follows: 96-well plates were centrifuged and supernatant was discarded. 250 μl of PBS were added to each well. Cells were frozen and thawed two times at −80° C. and then stored at −20° C. for further analysis.
(In general: In an ELISA, binding on a coated surface is turned into a signal by an enzyme label.)

The subject of assay [1] is primary bone marrow-derived MΦs. Kind of assay: IL-1β release from macrophages (ELISA). From the text:
(§1) C57BL/6J (Jax 000664), C57BL/6NJ (Jax 005304), CD14 KO (Jax 003726), caspase-1/-11 dKO mice (Jax 016621), TLR4-mutant (C3H/HeJ, Jax 000659), and wild-type control for TLR4-mutant (C3H/HeSNJ, Jax 000661) were purchased from Jackson Labs. NLRP3 KO and ASC KO mice were kindly provided by Dr. T. Horng, Harvard School of Public Health. Caspase-11 KO mice were kindly provided by Dr. Junying Yuan, Harvard Medical School. Caspase-1 single KO mice were kindly provided by Thirumala-Devi Kanneganti (St. Judes). DCs were differentiated from bone marrow in IMDM (Gibco), 10% B16-GM-CSF derived supernatant, 2 μM 2-mercaptoethanol and 10% FBS and used after 6 day of culture. DC purity was assessed by flow cytometry and was usually higher than 90%. […]
RNA was isolated from cell cultures using Qiashedder (Qiagen) and GeneJET RNA Purification Kit (Life Technologies). Purified RNA was analyzed for gene expression on a CFX384 real time cycler (Bio-rad) using TaqMan RNA-to-CT 1-Step Kit (Applied Biosystems) with probes purchased from Life Technologies specific for viperin (Mm00491265_m1), IFNb1 (Mm00439552_s1), IL6 (Mm00446190_m1), caspase-1 (Mm00438023_m1), caspase-11 (Mm00432307_m1), Nlrp3 (Mm00840904_m1), Asc (Mm00445747_g1), TBP (Mm00446971_m1) or GAPDH (Mm99999915_g1). ELISA for IL-1β, IL-2, IL-17, IL-18, TNFα and IFNγ were performed using Mouse Ready-SET-Go ELISA kits (eBioscience). […]

Assay [2] concerns DCs. The assay can be described thus: TNFα secretion from DCs (ELISA). Conditions: WT and caspase-11 KO DCs.
Excerpt: as §1, with “90%. MO were differentiated from bone marrow in DMEM (Gibco), 30% L929 supernatant, and 10% FBS. Immortal MΦs were cultured in DMEM supplemented with 10% L929 supernatant and 10% FBS. Splenic DCs were purified as described previously (Zanoni et al., 2012). Prior to stimulations, cultured cells were washed and re-plated in DMEM supplemented with 10% FBS at a concentration of 1×10^6 cells/ml in a final volume of 100 μl. For experiments using pan-caspase inhibitor, cells were treated with zVADfmk (20 μM) 30 min before inflammasome activation stimuli addition.” for “90%.”
RNA was isolated from cell cultures using Qiashedder (Qiagen) and GeneJET RNA Purification Kit (Life Technologies). Purified RNA was analyzed for gene expression on a CFX384 real time cycler (Bio-rad) using TaqMan RNA-to-CT 1-Step Kit (Applied Biosystems) with probes purchased from Life Technologies specific for viperin (Mm00491265_m1), IFNb1 (Mm00439552_s1), IL6 (Mm00446190_m1), caspase-1 (Mm00438023_m1), caspase-11 (Mm00432307_m1), Nlrp3 (Mm00840904_m1), Asc (Mm00445747_g1), TBP (Mm00446971_m1) or GAPDH (Mm99999915_g1). ELISA for IL-1β, IL-2, IL-17, IL-18, TNFα and IFNγ were performed using Mouse Ready-SET-Go ELISA kits (eBioscience). […] Cell associated cytokines were measured as follows: 96-well plates were centrifuged and supernatant was discarded. […]

In the next assay the test system is LPS-pretreated DCs. Kind of assay: ASC and caspase-1 containing speck formation (immunofluorescence). Particulars: ATP 1 mM, oxPAPC 120 μM. On the procedure: For live or permeability experiment, MitotTacker CMX-ROS (Life Technologies) or Zombie Red (BioLegend) dyes were used in according to manufacturer's instructions before fixation with 4% paraformaldehyde. After permeabilization step using 0.1% Triton X-100 0.2% BSA-PBS, cells were blocked in 2% BSA-PBS and incubated with rabbit anti-ASC pAb (AL177, Adipogen) and mouse anti-caspase-1 mAb (Casper-1, Adipogen) followed by Alexa Fluor 488-conjugated chicken anti-rabbit IgG (Life Technologies) and Alexa Fluor 568-conjugated goat anti-mouse IgG (Life Technologies) diluted in blocking buffer. Nuclei were counterstained with DAPI (Life Technologies) or DRAQ5 (BioLegend). A Zeiss Axiovert 200M confocal microscope or an Olympus BX41 fluorescence microscope was used to acquire images.

Assay [3] deals with DCs. The assay can be described thus: Pyroptosis / cell death by LDH release. Particulars: LPS-primed DCs. From the text: In addition to promoting IL-β release, inflammasome activation has been typically associated with the induction of cell death (Aachoui, Y., (2013b). Current opinion in microbiology 16, 319-326). Without wishing to be bound by theory, cell death via non-canonical inflammasomes is believed to depend upon the enzymatic activity of caspase-11, which must cleave at least two proteins, gasdermin d and pannexin-1 (Kayagaki, N. et al., (2015) Nature 526, 666-671; Shi, J. et al., (2015) Nature 526, 660-665; Yang, D. et al., (2015) Immunity 43, 923-932). […] To assess this possibility directly, pyroptosis induction after oxPAPC administration or LPS transfection in LPS-primed DCs was measured. Pyroptosis is characterized by a rapid loss of plasma membrane integrity, which should release cytoplasmic proteins (and organelles) from the cell body. LDH release in the supernatant was used to assess membrane permeabilization of the cell population during pyroptosis. LPS/ATP-treated cells released LDH starting 4 hours after treatment (FIG. 48A); this combination was a well-defined activator of inflammasome-mediated cell death (Aachoui, Y., (2013b). Current opinion in microbiology 16, 319-326). Cells transfected with LPS, independently from LPS priming, died at later time points than cells treated with ATP (FIG. 48A).
(In general: Release of lactate dehydrogenase indicates damage to the cell membrane.)

Assay [4] relates to DCs. The assay can be described thus: Single cell viability assay of inflammasome-containing cells (Zombie dye, active mitochondria). Conditions: LPS-pretreated DCs.
Protocol: BMDCs cells were treated with LPS (1 μg/mL) for 3 hours before inflammasome-inducing stimuli challenge. For live or permeability experiment, MitotTacker CMX-ROS (Life Technologies) or Zombie Red (BioLegend) dyes were used in according to manufacturer's instructions before fixation with 4% paraformaldehyde. After permeabilization step using 0.1% Triton X-100 0.2% BSA-PBS, cells were blocked in 2% BSA-PBS and incubated with rabbit anti-ASC pAb (AL177, Adipogen) and mouse anti-caspase-1 mAb (Casper-1, Adipogen) followed by Alexa Fluor 488-conjugated chicken anti-rabbit IgG (Life Technologies) and Alexa Fluor 568-conjugated goat anti-mouse IgG (Life Technologies) diluted in blocking buffer. Nuclei were counterstained with DAPI (Life Technologies) or DRAQ5 (BioLegend). A Zeiss Axiovert 200M confocal microscope or an Olympus BX41 fluorescence microscope was used to acquire images.
Assay [5] deals with DCs. Kind of assay: DC viability / survival (7-AAD staining). Conditions: up to 72 hours after treatment; ATP and oxPAPC in LPS-treated DCs. From the text: It was contemplated that living cells should resist staining with Zombie dye, a stain that labels the cytosol of cells whose plasma membranes have been disrupted. Cells with intact plasma membranes should also retain functional organelles. In contrast, pyroptotic cells should have lost their organelles and should stain strongly for Zombie dye. […] Moreover, not only did oxPAPC not induce pyroptosis, this lipid counteracted the slow acting death pathways activated by LPS in DCs (Zanoni, I. et al. (2009) Nature 460, 264-268). For this experiment, the health of individual cells within the population up to 72 hours after treatment was assessed by flow cytometry, using the viability stain 7-AAD, which detected genomic DNA within cells whose membranes had been permeabilized (Paterson, A. M. et al., (2011) J Immunol 187, 1097-1105).

`Nc1ncnc2c1ncn2[C@@H]1O[C@H](COP(=O)(O)OP(=O)(O)OP(=O)(O)O)[C@@H](O)[C@H]1O` [ATP]: the IL-1β release entry was “completely lost” in the assay with bone marrow derived DCs (BMDCs lacking caspase-1/-11 or ASC); “elicit IL-1β release from DCs in a dose-dependent manner” in the assay on bone marrow derived DCs (LPS-primed DCs); “remained intact” in the assay on bone marrow derived DCs (LPS-primed caspase-11 KO DCs); “NLRP3 dependent” in the assay with bone marrow derived DCs (NLRP3-deficient BMDCs); “remained intact” with bone marrow derived DCs (Pam3CSK-primed caspase-11 KO cells); “promoted the efficient release of IL-1β” in assay [1]. Further, the “cell-associated IL-1β levels” value in the assay on bone marrow derived DCs (LPS-primed, compared with LPS alone) is recorded as “similar”. The TNFα secretion entry in the assay with DCs [2] is listed as “not affected”. The “formation of ASC and caspase-1-containing specks” value with LPS-pretreated DCs is “induced the formation”. For the same compound, the “time from which LDH was released” value in the assay on DCs [3] is at least 4 h. The “mitochondria and Zombie dye staining of cells containing ASC specks” value with DCs [4] was “lost mitochondria and stained positive for Zombie dye”. Also, in the assay on DCs [5], the “DC viability (7-AAD)” value is on record as “diminished DC viability”.
